The text below walks through data of patent US20260167619A2, “INDOLINE COMPOUNDS AND DERIVATIVES AS EGFR INHIBITORS” (BeOne Medicines I GmbH, priority 2020, published 2026).

The target in one assay is BaF3-LR_TM_CS cells (Homo sapiens, UniProt P00533, T790M/C797S/L858R, cells depend on it). The assay can be described thus: Cell antiproliferation assay (CellTiter-Glo), BaF3-LR_TM_CS. Format: cell-based. The following applies: 48 h treatment, read-out: BaF3-LR_TM_CS IC50. The essentials: (§1)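 Viability read as CellTiter-Glo luminescence after 48 h compound treatment at 0.2% DMSO final. Eight concentrations, 5-fold steps, made as 500× DMSO stocks starting at 5 mM. Percent inhibition curve-fitted (Hill slope, top, bottom) to give IC50.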
(In general: In ATP-based viability assays light output follows the ATP content of the culture.)

Another assay has as its target BaF3-WT cells (Homo sapiens, UniProt P00533). The assay can be described thus: Cell antiproliferation assay (CellTiter-Glo), BaF3-WT. Format: cell-based. The following applies: 48 h treatment, read-out: BaF3-WT IC50. The essentials:
as §1

For a further assay, the target named is BaF3-Del_TM_CS cells (Homo sapiens, UniProt P00533, T790M/C797S, cells depend on it, form not given). Briefly: Cell antiproliferation assay (CellTiter-Glo), BaF3-Del_TM_CS. Type of assay: cell-based. The following applies: 48 h treatment, read-out: BaF3-Del_TM_CS IC50. The method, boiled down:
as §1

For assay [1], the target named is T1, EGFR(L858R_T790M_C797S) (aa695-end, Invitrogen) (Homo sapiens, UniProt P00533, C797S/L858R/T790M).
T1 construct: purchased Invitrogen
T1 sequence (P00533 695-1210 T790M/C797S/L858R): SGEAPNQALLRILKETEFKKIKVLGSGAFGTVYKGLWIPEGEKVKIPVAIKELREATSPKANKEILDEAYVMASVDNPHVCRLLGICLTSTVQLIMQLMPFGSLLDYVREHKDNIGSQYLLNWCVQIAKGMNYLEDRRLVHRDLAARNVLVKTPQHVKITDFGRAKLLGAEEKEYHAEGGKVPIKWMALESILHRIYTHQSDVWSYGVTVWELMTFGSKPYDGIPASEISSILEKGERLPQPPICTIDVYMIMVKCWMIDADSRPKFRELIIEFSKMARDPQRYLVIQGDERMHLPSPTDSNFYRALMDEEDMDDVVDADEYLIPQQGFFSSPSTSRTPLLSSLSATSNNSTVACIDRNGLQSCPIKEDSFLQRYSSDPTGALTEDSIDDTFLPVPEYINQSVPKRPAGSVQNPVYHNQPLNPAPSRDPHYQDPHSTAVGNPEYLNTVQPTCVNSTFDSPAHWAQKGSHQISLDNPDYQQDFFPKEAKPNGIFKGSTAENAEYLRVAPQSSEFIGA
The assay can be described thus: Biochemical EGFR inhibition assay (TR-FRET), L858R/T790M/C797S mutant. The note with it: ATP at Km, 15 min pre-incubation, 60 min reaction; read-out: LR_TM_CS (Km ATP) IC50. The essentials:
(§2)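 Recombinant kinase domains pre-incubated with compound 15 min at room temperature in HEPES pH 7.5 buffer, then reacted 60 min with ATP at Km and biotin-poly GT substrate. Phosphotyrosine detected by TR-FRET (Eu-anti-pTyr/streptavidin-XL665, 665/620 nm ratio); IC50 from four-parameter logistic fit.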
On the technique in general: In TR-FRET formats the signal depends on donor and acceptor labels being close together.

Assay [2] addresses T2, EGFR (aa668-1210, Invitrogen) (Homo sapiens, UniProt P00533).
T2 construct: EGFR (aa668-1210, Invitrogen); purchased Invitrogen
Briefly: Biochemical EGFR inhibition assay (TR-FRET), wild-type EGFR. The note with it: ATP at Km, 15 min pre-incubation, 60 min reaction; read-out: WT (Km ATP) IC50. The method, boiled down: as §2

In assay [3] the target is EGFR(Dell9_T790M_C797S) (aa 669-1210, in house) (Homo sapiens, UniProt P00533, T790M/C797S, form not given). The assay can be described thus: Biochemical EGFR inhibition assay (TR-FRET), Del19/T790M/C797S mutant. The following applies: ATP at Km, 15 min pre-incubation, 60 min reaction; read-out: Del_TM_CS (Km ATP) IC50. The essentials: as §2
EGFR(Dell9_T790M_C797S) (aa 669-1210, in house), sequence (P00533 with tags, fused parts or gaps DEL746-750/T790M/C797S, form open): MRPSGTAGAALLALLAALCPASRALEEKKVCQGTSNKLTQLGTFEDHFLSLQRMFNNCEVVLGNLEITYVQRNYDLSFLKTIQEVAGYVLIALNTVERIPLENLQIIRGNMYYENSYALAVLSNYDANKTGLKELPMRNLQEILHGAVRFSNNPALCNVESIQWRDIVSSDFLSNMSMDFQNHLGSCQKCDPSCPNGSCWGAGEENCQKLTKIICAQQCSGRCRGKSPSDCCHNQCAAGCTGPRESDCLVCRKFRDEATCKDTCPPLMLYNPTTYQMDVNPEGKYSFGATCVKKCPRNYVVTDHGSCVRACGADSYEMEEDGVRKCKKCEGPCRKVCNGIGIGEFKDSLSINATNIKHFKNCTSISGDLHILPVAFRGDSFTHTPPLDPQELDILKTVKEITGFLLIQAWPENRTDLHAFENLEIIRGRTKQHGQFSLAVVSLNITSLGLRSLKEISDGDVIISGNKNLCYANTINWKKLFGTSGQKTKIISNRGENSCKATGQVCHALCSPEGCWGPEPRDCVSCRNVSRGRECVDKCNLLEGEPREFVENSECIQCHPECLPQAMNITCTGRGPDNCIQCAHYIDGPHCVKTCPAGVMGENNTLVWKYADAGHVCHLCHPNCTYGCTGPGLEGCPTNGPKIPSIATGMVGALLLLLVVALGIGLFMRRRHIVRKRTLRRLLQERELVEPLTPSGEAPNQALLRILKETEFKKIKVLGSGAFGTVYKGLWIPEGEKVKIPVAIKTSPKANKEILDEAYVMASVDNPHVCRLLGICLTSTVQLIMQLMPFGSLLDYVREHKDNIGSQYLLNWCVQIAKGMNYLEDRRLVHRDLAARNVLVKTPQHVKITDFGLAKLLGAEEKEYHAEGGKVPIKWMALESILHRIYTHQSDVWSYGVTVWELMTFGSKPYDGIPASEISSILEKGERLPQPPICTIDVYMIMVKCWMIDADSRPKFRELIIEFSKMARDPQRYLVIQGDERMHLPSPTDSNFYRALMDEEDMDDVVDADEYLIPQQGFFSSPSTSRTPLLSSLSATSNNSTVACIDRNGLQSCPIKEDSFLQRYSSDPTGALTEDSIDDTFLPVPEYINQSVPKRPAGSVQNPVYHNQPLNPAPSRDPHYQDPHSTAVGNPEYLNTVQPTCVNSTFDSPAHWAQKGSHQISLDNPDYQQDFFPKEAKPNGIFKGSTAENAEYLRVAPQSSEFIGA

By IC50 is commonly meant the concentration that gives 50% inhibition.

BaF3-WT cells, sequence (P00533 whole entry, change not shown): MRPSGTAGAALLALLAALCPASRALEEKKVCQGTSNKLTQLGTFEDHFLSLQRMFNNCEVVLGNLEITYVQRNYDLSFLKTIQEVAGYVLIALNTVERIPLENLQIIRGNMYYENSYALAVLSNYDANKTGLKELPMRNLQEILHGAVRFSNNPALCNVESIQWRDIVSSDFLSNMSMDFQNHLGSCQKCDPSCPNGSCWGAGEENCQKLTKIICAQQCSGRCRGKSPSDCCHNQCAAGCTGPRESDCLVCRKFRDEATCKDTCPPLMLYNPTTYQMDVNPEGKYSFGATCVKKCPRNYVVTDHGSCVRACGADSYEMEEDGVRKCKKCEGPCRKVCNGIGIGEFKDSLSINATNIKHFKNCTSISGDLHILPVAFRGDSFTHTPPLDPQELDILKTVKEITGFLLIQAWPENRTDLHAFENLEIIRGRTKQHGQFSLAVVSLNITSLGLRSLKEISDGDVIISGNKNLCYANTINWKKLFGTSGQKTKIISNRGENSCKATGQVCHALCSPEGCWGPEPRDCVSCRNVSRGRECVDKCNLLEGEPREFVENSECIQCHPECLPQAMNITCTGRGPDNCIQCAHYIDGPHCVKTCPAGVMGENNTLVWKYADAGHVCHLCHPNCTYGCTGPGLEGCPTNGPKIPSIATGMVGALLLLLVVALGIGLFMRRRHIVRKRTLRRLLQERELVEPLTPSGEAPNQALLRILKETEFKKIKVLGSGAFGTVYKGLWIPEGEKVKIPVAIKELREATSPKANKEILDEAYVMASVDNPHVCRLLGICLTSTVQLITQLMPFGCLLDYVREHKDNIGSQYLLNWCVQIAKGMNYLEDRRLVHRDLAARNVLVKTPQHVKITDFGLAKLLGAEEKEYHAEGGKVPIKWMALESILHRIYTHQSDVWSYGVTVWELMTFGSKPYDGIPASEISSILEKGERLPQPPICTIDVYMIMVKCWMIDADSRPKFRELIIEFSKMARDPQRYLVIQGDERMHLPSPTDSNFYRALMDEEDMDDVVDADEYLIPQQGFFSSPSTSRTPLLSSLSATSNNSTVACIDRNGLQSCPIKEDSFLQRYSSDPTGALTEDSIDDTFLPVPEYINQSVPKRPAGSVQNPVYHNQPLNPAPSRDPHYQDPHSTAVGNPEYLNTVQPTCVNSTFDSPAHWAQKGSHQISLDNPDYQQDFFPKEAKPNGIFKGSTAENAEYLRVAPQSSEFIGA
BaF3-Del_TM_CS cells, sequence (P00533 with tags, fused parts or gaps DEL746-750/T790M/C797S, form open): as the sequence (P00533 with tags, fused parts or gaps DEL746-750/T790M/C797S, form open) above
T2 sequence (P00533 668-1210): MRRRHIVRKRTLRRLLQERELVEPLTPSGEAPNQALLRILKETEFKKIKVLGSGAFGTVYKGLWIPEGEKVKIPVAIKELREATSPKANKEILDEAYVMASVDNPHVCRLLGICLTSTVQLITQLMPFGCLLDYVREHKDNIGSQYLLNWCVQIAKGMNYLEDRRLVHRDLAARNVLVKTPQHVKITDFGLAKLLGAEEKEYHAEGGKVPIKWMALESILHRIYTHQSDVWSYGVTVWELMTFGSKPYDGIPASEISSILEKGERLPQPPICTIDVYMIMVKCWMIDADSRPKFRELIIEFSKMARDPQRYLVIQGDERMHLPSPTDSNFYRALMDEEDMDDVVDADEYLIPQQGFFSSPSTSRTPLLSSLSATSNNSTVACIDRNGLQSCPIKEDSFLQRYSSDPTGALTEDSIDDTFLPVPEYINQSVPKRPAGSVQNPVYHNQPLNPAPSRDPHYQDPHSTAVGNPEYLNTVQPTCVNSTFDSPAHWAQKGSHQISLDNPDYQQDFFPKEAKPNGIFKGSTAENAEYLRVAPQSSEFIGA

In the case of `CNC(=O)N1CCc2cccc(Nc3nc(Nc4ccc(N5CCC(N6CCN(C)CC6)CC5)cc4OC)ncc3Cl)c21` [Example 16, 7-((5-chloro-2-((2-methoxy-4-(4-(4-methylpiperazin-1-yl)piperidin-1-yl)phenyl)amino)pyrimidin-4-yl)amino)-N-methylindoline-1-carboxamide], the results for the GI50 on BaF3-LR_TM_CS cells, on BaF3-WT cells and at BaF3-Del_TM_CS cells were 1120 nM, 1980 nM and 802 nM, respectively. For the same compound, the IC50 in assay [1] is 38 nM; in assay [2], 286 nM; in assay [3], 87 nM.
With `COc1cc(N2CCC(N3CCN(C)CC3)CC2)ccc1Nc1ncc(Cl)c(Nc2cccc3c2N(S(C)(=O)=O)CC3C)n1` (stereo not drawn) [Example 23, 5-chloro-N^2-(2-methoxy-4-(4-(4-methylpiperazin-1-yl)piperidin-1-yl)phenyl)-N^4-(3-methyl-1-(methylsulfonyl)indolin-7-yl)pyrimidine-2,4-diamine], the GI50 at BaF3-LR_TM_CS cells was found to be 38.4 nM; on BaF3-WT cells, 453 nM; at BaF3-Del_TM_CS cells, 13.3 nM. Further, the IC50 in assay [1] came out at 0.54 nM; in assay [2], 1.1 nM; in assay [3], 0.54 nM.
For `CCN1CCN(C2CCN(c3ccc(Nc4nc(Nc5ccc(F)c6c5N(S(C)(=O)=O)CC65CCC5)c5cc[nH]c5n4)cc3F)CC2)CC1` [Example 83, N^2-(4-(4-(4-ethylpiperazin-1-yl)piperidin-1-yl)-3-fluorophenyl)-N^4-(4′-fluoro-1′-(methylsulfonyl)spiro[cyclobutane-1,3′-indolin]-7′-yl)-7H-pyrrolo[2,3-d]pyrimidine-2,4-diamine], the GI50 is 1040 nM on BaF3-LR_TM_CS cells, 1860 nM on BaF3-WT cells and 707 nM on BaF3-Del_TM_CS cells. The IC50 in assay [1] was 42 nM; in assay [2] it was 7290 nM; in assay [3], 37 nM.
Regarding `CCc1cc(Nc2nc(Nc3cccc4c3N(S(C)(=O)=O)CC4)c3cc[nH]c3n2)c(OC)cc1N1CCC(N2CCN(C)CC2)CC1` [Example 94, N^2-(5-ethyl-2-methoxy-4-(4-(4-methylpiperazin-1-yl)piperidin-1-yl)phenyl)-N^4-(1-(methylsulfonyl)indolin-7-yl)-7H-pyrrolo[2,3-d]pyrimidine-2,4-diamine], the GI50 on BaF3-LR_TM_CS cells is 84.8 nM; on BaF3-WT cells, 640 nM; on BaF3-Del_TM_CS cells, 10.9 nM. Further, the results for the IC50 in assay [1], in assay [2] and in assay [3] were 1.1 nM, 29 nM and 1.5 nM, respectively.
Consider `COc1cc(C2CCC(N(C)C)CC2)c(C)cc1Nc1nc(Nc2cccc3c2N(S(C)(=O)=O)CC3)c2cc[nH]c2n1` (stereo not drawn) [Example 104, N^2-(4-(4-(dimethylamino)cyclohexyl)-2-methoxy-5-methylphenyl)-N^4-(1-(methylsulfonyl)indolin-7-yl)-7H-pyrrolo[2,3-d]pyrimidine-2,4-diamine], for which the GI50 on BaF3-LR_TM_CS cells worked out at 195 nM; at BaF3-WT cells, 1490 nM; at BaF3-Del_TM_CS cells, 128 nM. In addition, the figures for the IC50 in assay [1], in assay [2] and in assay [3] were 3.4 nM, 332 nM and 5.3 nM, respectively.
Turning to `COc1cc(N2CCC(N3CCN(C)CC3)CC2)c(Cl)cc1Nc1nc(Nc2cccc3c2N(S(C)(=O)=O)CC3)c2cc[nH]c2n1` [Example 95, N^2-(5-chloro-2-methoxy-4-(4-(4-methylpiperazin-1-yl)piperidin-1-yl)phenyl)-N^4-(1-(methylsulfonyl)indolin-7-yl)-7H-pyrrolo[2,3-d]pyrimidine-2,4-diamine], the GI50 stood at 83.8 nM on BaF3-LR_TM_CS cells, 1960 nM at BaF3-WT cells and 9.58 nM at BaF3-Del_TM_CS cells. In addition, the IC50 in assay [1] is 0.79 nM; in assay [2], 28 nM; in assay [3], 1.4 nM.
As to `COc1cc(N2C[C@@H](C)N(C)[C@@H](C)C2)c(C)cc1Nc1nc(Nc2cccc3c2N(S(C)(=O)=O)CC3)c2cc[nH]c2n1` [Example 106, N^2-(2-methoxy-5-methyl-4-((3S,5R)-3,4,5-trimethylpiperazin-1-yl)phenyl)-N^4-(1-(methylsulfonyl)indolin-7-yl)-7H-pyrrolo[2,3-d]pyrimidine-2,4-diamine], the GI50 was 93.8 nM at BaF3-LR_TM_CS cells, 1790 nM at BaF3-WT cells and 57.3 nM at BaF3-Del_TM_CS cells. For the same compound, the results for the IC50 in assay [1], in assay [2] and in assay [3] were 5.3 nM, 575 nM and 4.9 nM, respectively.
On to `CN1CCN(C2CCN(c3ccc(Nc4ncc(Br)c(Nc5cccc6c5N(S(C)(=O)=O)CC6)n4)c4c3CCO4)CC2)CC1` [Example 50, 5-bromo-N^2-(4-(4-(4-methylpiperazin-1-yl)piperidin-1-yl)-2,3-dihydrobenzofuran-7-yl)-N^4-(1-(methylsulfonyl)indolin-7-yl)pyrimidine-2,4-diamine], for which the figures for the GI50 on BaF3-LR_TM_CS cells, at BaF3-WT cells and on BaF3-Del_TM_CS cells were 176 nM, 2730 nM and 19 nM, respectively. Further, the IC50 in assay [1] is 1 nM; in assay [2], 14 nM; in assay [3], 0.63 nM.
With `COc1cc(N2CCC(N3CCN(C)CC3)CC2)ccc1Nc1ncc(Cl)c(Nc2ccc(F)c3c2N(S(C)(=O)=O)CC3)n1` [Example 1, 5-chloro-N^4-(4-fluoro-1-(methylsulfonyl)indolin-7-yl)-N^2-(2-methoxy-4-(4-(4-methylpiperazin-1-yl)piperidin-1-yl)phenyl)pyrimidine-2,4-diamine], the GI50 amounted to 152 nM on BaF3-LR_TM_CS cells, 635 nM at BaF3-WT cells and 48.2 nM on BaF3-Del_TM_CS cells. For the same compound, the IC50 in assay [1] was found to be 0.1 nM; in assay [2] it was 0.55 nM; in assay [3], 0.13 nM.
For the compound `COc1cc(N2CCC(N(C)C)CC2)c(C)cc1Nc1nc(Nc2cccc3c2N(S(C)(=O)=O)CC3)c2cc[nH]c2n1` [Example 103, N^2-(4-(4-(dimethylamino)piperidin-1-yl)-2-methoxy-5-methylphenyl)-N^4-(1-(methylsulfonyl)indolin-7-yl)-7H-pyrrolo[2,3-d]pyrimidine-2,4-diamine], the GI50 was 76.7 nM at BaF3-LR_TM_CS cells, 1690 nM at BaF3-WT cells and 25.6 nM on BaF3-Del_TM_CS cells. Besides, the figures for the IC50 in assay [1], in assay [2] and in assay [3] were 0.47 nM, 28 nM and 0.78 nM, respectively.
Regarding `COc1cc(N2CCCN(C)CC2)c(C)cc1Nc1nc(Nc2cccc3c2N(S(C)(=O)=O)CC3)c2cc[nH]c2n1` [Example 101, N^2-(2-methoxy-5-methyl-4-(4-methyl-1,4-diazepan-1-yl)phenyl)-N^4-(1-(methylsulfonyl)indolin-7-yl)-7H-pyrrolo[2,3-d]pyrimidine-2,4-diamine], the GI50 on BaF3-LR_TM_CS cells was 157 nM; at BaF3-WT cells, 1410 nM; on BaF3-Del_TM_CS cells it was 58.9 nM. The IC50 stood at 2 nM in assay [1], 170 nM in assay [2] and 3.1 nM in assay [3].
As to `COc1cc(N2CCC(N3CCN(C)CC3)CC2)ccc1Nc1ncc(C#N)c(Nc2cccc3c2N(S(C)(=O)=O)CC3)n1` [Example 33, 2-((2-methoxy-4-(4-(4-methylpiperazin-1-yl)piperidin-1-yl)phenyl)amino)-4-((1-(methylsulfonyl)indolin-7-yl)amino)pyrimidine-5-carbonitrile], the results for the GI50 on BaF3-LR_TM_CS cells, at BaF3-WT cells and on BaF3-Del_TM_CS cells were 225 nM, 328 nM and 68.5 nM, respectively. For the same compound, the values for the IC50 in assay [1], in assay [2] and in assay [3] were 1.3 nM, 1.3 nM and 1 nM, respectively.
For `CNS(=O)(=O)N1CCc2cccc(Nc3nc(Nc4ccc(N5CCC(N6CCN(C)CC6)CC5)cc4OC)ncc3Cl)c21` [Example 14, 7-((5-chloro-2-((2-methoxy-4-(4-(4-methylpiperazin-1-yl)piperidin-1-yl)phenyl)amino)pyrimidin-4-yl)amino)-N-methylindoline-1-sulfonamide], the GI50 on BaF3-LR_TM_CS cells came out at 14.3 nM; on BaF3-WT cells it was 193 nM; at BaF3-Del_TM_CS cells, 8.76 nM. Besides, the values for the IC50 in assay [1], in assay [2] and in assay [3] were 0.24 nM, 1.4 nM and 0.59 nM, respectively.
As for `COc1cc(N2CCC(N3CCN(C)CC3)CC2)c(F)cc1Nc1nc(Nc2cccc3c2N(S(C)(=O)=O)CC3)c2cc[nH]c2n1` [Example 98, N^2-(5-fluoro-2-methoxy-4-(4-(4-methylpiperazin-1-yl)piperidin-1-yl)phenyl)-N4-(1-(methylsulfonyl)indolin-7-yl)-7H-pyrrolo[2,3-d]pyrimidine-2,4-diamine], the GI50 came out at 76.5 nM on BaF3-LR_TM_CS cells, 1460 nM on BaF3-WT cells and 24.7 nM on BaF3-Del_TM_CS cells. Further, the results for the IC50 in assay [1], in assay [2] and in assay [3] were 0.56 nM, 22 nM and 0.96 nM, respectively.
